From ChEMBL document CHEMBL2390842, “Development of indole/indazole-aminopyrimidines as inhibitors of c-Jun N-terminal kinase (JNK): optimization for JNK potency and physicochemical properties” (Bioorg Med Chem Lett, 2013) come the findings set out here.

As usually defined, the IC50 is the point on the concentration scale where inhibition reaches its midpoint. One may read the solubility as the concentration that dissolves in the medium under given conditions. Read a high solubility as a readily soluble substance. What is called Papp A→B is how fast a substance crosses the layer from the apical side. The low end stands for poor permeation, the high end for ready permeation. A word on the half-life: it is the time needed for the level to fall by half in the phase considered. Low values mean rapid decline, high ones slow decline. In general, clearance refers to the rate of elimination divided by the concentration. A high value points to a high capacity for elimination. One may read the bioavailability as the share of a dose that reaches the circulation, judged against a reference dose that is usually intravenous. Read a low bioavailability as poor availability.

The target in data set [1] is c-Jun N-terminal kinase, JNK (Homo sapiens, UniProt P45983+P53779+P45984). Kind of data set: Inhibition of JNK-mediated c-Jun activation in TNFalpha-induced human SW1353 cells preincubated for 30 mins prior to TNFalpha treatment measured after 20 mins. The data set is classed as cell-based.
The target in data set [2] is Mitogen-activated protein kinase 8 (Homo sapiens, UniProt P45983). As to the kind of experiment: Inhibition of human JNK1alpha1 using GST-tagged ATF2 as substrate preincubated for 10 mins prior to substrate addition measured after 30 mins by microplate scintillation counting analysis.
Chain of Mitogen-activated protein kinase 8 (P45983 whole entry): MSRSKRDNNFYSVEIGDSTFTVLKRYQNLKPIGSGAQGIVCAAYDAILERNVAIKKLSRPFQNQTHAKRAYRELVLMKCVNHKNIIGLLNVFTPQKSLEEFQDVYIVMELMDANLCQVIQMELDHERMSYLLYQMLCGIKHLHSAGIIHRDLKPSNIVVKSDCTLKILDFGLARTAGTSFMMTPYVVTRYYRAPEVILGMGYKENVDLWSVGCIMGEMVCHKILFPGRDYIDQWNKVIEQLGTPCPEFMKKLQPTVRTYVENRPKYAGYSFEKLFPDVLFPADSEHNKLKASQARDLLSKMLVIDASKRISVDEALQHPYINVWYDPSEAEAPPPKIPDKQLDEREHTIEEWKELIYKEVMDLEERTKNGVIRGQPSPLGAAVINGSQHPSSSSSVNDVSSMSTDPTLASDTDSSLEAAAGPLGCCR
The next data set relates to Caco-2. Kind of data set: Efflux ratio of permeability from […] side in human Caco2 cells. It is filed as ADME, cell-based.
A short description of data set [3]: Solubility of the compound in phosphate buffer at pH 6.4. The data set is classed as physicochemical.
Data set [4] in a line: Permeability from apical to basolateral side in human Caco2 cells. It is filed as ADME, cell-based. To be noted: Caco-2. For orientation: Passage across Caco-2 layers is used to estimate intestinal permeability.
The nature of data set [5]: Half life in rat at 2 mg/kg, po. The data set is classed as ADME, organism-based. Set-up: dose 2 mg/kg, route oral. Particulars: in vivo.
The nature of data set [6]: Clearance in rat at 0.5 mg/kg, iv. It is filed as ADME, organism-based. On the set-up: dose 0.5 mg/kg, route intravenous. To be noted: in vivo.
A short description of data set [7]: Oral bioavailability in dog at 2 mg/kg. To be noted: in vivo. It is filed as ADME, organism-based, Canis lupus familiaris.
Data set [8] can be described thus: Oral bioavailability in rat at 2 mg/kg. The data set is classed as ADME, organism-based. To be noted: in vivo.
Data set [9] is described as follows: Half life in rat at 0.5 mg/kg, iv. It is filed as ADME, organism-based. Set-up: dose 0.5 mg/kg, route intravenous. Particulars: in vivo.
A short description of data set [10]: Half life in dog at 2 mg/kg, po. On the set-up: dose 2 mg/kg, route oral. To be noted: in vivo. It is filed as ADME, organism-based, Canis lupus familiaris.
A short description of data set [11]: Clearance in dog at 0.5 mg/kg, iv. The data set is classed as ADME, organism-based, Canis lupus familiaris. Particulars: in vivo. On the set-up: dose 0.5 mg/kg, route intravenous.
The nature of data set [12]: Half life in dog at 0.5 mg/kg, iv. The data set is classed as ADME, organism-based, Canis lupus familiaris. On the set-up: dose 0.5 mg/kg, route intravenous. To be noted: in vivo.
Data set [13] addresses Mitogen-activated protein kinase 9 (Homo sapiens, UniProt P45984). As to the kind of experiment: Inhibition of human JNK2alpha2 using GST-tagged ATF2 as substrate preincubated for 10 mins prior to substrate addition measured after 30 mins by microplate scintillation counting analysis.

Each structure is given as a SMILES string. ≈ marks a conversion by molar mass, not a printed value.

Chain of Mitogen-activated protein kinase 9 (P45984 whole entry): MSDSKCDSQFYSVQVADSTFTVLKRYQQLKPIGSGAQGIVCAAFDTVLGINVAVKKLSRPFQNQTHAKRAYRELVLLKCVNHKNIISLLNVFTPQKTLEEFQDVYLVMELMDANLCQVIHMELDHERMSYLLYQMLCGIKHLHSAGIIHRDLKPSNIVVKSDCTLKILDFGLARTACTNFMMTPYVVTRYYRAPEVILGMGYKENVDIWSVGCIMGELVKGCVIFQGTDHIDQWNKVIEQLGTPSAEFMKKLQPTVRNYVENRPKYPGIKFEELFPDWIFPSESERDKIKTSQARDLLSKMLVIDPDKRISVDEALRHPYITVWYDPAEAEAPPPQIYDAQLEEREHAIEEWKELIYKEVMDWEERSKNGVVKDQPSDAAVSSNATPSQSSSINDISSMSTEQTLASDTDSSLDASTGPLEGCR

Molecule `CS(=O)(=O)N[C@H]1CC[C@H](Nc2nccc(-n3ccc4c(N5CCC(S(C)(=O)=O)CC5)cccc43)n2)CC1` showed an IC50 in data set [1] of 710 nM.

As to `CS(=O)(=O)N[C@H]1CC[C@H](Nc2nccc(-n3ccc4c(N5CCN(C(=O)CC#N)CC5)cccc43)n2)CC1`, the IC50 in data set [2] turned out to be 5 nM; in data set [1], 200 nM.

With `CS(=O)(=O)C1CCN(c2cccc3c2cnn3-c2ccnc(N[C@H]3CC[C@H](O)CC3)n2)CC1`, the IC50 in data set [2] was determined as 6 nM; in data set [1], 290 nM. Also, the Ratio in the data set on Caco-2 was found to be 5. The amount in solution in [3] (solubility) came to 3.5 µg/mL (≈ 7.44 µM). In [4], this molecule came in with a Papp A→B of 3.8 ×10⁻⁶ cm/s.

As to `CS(=O)(=O)C1CCN(c2cccc3c2ccn3-c2ccnc(N[C@H]3CC[C@H](O)CC3)n2)CC1`, the half-life in data set [5] was 2 h; in [9], 0.7 h; in [10] it was 3.4 h; in data set [12] it was 4.5 h. In addition, the clearance in data set [6] stood at 47 mL/min/kg; in [11], 10.6 mL/min/kg. Moreover, the bioavailability in data set [7] was determined as 15%; in [8], 100%. The molecule also showed a solubility in [3] of 5.2 µg/mL (≈ 11.1 µM). In [4], this molecule registered an apical-to-basolateral permeability (Papp A→B) of 10.5 ×10⁻⁶ cm/s. In [13], this molecule came in with an IC50 of 20 nM.

For `CC(=O)N[C@H]1CC[C@H](Nc2nccc(-n3ccc4c(N5CCC(S(C)(=O)=O)CC5)cccc43)n2)CC1`, the IC50 stood at 7 nM in data set [2] and 700 nM in data set [1].

`CS(=O)(=O)C1CCN(c2cccc3c2ccn3-c2ccnc(N[C@H]3CC[C@H](C(=O)N4CCC(O)CC4)CC3)n2)CC1`: the Papp A→B in data set [4] turned out to be 0.4 ×10⁻⁶ cm/s.

On to `CS(=O)(=O)C1CCN(c2cccc3c2ccn3-c2ccnc(N[C@H]3CC[C@H](C(=O)N4CCn5cnnc5C4)CC3)n2)CC1`, for which the Papp A→B in data set [4] worked out at 0.1 ×10⁻⁶ cm/s.
